# System: HIV-1 from the patient plasma sample
# Assay: PHENOSENSE HIV phenotypic assay, tipranavir IC50 fold change vs NL4-3 reference strain
# Format: cell-based
# Settings: for MEAN tipranavir FC / MEDIAN tipranavir FC: 1411 patient samples
# Experimental: In one embodiment, the phenotypic analysis is performed using PHENOSENSE™ (ViroLogic Inc., South San Francisco, Calif.). See Petropoulos et al., 2000, Antimicrob. Agents Chemother. 44:920-928; U.S. Pat. Nos. 5,837,464 and 6,242,187. PHENOSENSE™ is a phenotypic assay that achieves the benefits of phenotypic testing and overcomes the drawbacks of previous assays. Because the assay has been automated, PHENOSENSE™ offers higher throughput under controlled conditions. The result is an assay that accurately defines the susceptibility profile of a patient's HIV isolates to all currently available antiretroviral drugs, and delivers results directly to the physician within about 10 to about 15 days of sample receipt. PHENOSENSE™ is accurate and can obtain results with only one round of viral replication, thereby avoiding selection of subpopulations of virus. The results are quantitative, measuring varying degrees of drug susceptibility, and sensitive—the test can be performed on blood specimens with a viral load of about 500 copies/mL and can detect minority populations of some drug-resistant virus at concentrations of 10% or less of total viral population. Furthermore, the results are reproducible and can vary by less than about 1.4-2.5 fold, depending on the drug, in about 95% of the assays performed.
# A resistance test vector (“RTV”) can then be constructed by incorporating the amplified viral gene sequences into a replication defective viral vector by using any method known in the art of incorporating gene sequences into a vector. In one embodiment, restrictions enzymes and conventional cloning methods are used. See Maniatis et al., 1989, Molecular Cloning: A Laboratory Manual, Cold Spring Harbor Laboratory, NY and Ausubel et al., 1989, Current Protocols in Molecular Biology, Greene Publishing Associates and Wiley Interscience, NY. In some embodiments, ApaI and PinAI restriction enzymes are used. Preferably, the replication defective viral vector is the indicator gene viral vector (“IGVV”). In some embodiments, the viral vector contains a means for detecting replication of the RTV. Preferably, the viral vector contains a luciferase expression cassette.
# The assay can be performed by first co-transfecting host cells with RTV DNA and a plasmid that expresses the envelope proteins of another retrovirus, for example, amphotropic murine leukemia virus (MLV). Following transfection, virus particles can be harvested and used to infect fresh target cells. The completion of a single round of viral replication can be detected by the means for detecting replication contained in the vector. In one embodiment, the completion of a single round of viral replication results in the production of luciferase. Serial concentrations of anti-viral agents can be added at either the transfection step or the infection step.
# Susceptibility to the anti-viral agent can be measured by comparing the replication of the vector in the presence and absence of the anti-viral agent. For example, susceptibility to the anti-viral agent can be measured by comparing the luciferase activity in the presence and absence of the anti-viral agent. Susceptible viruses would produce low levels of luciferase activity in the presence of anti-viral agents, whereas viruses with reduced susceptibility would produce higher levels of luciferase activity.
# The phenotypic assay was conducted using the PHENOSENSE™ (Monogram Biosciences, Inc, South San Francisco, Calif.) HIV assay (Petropoulos et al., 2000, Antimicrob. Agents Chemother. 44:920-928; U.S. Pat. Nos. 5,837,464 and 6,242,187, and International Patent Application No. PCT/US06/05512). Plasma samples were collected from HIV-1-infected patients. IC50 values for tipranavir were obtained for the HIV-1 from the patient sample. This was compared to the IC50 for tipranavir against the NL4-3 (GenBank Accession No. AF324493) reference viral strain. […]
# [1] = Kohlbrenner TPV mutation score 0
# [2] = Kohlbrenner TPV mutation score 0, 4492 samples
# [3] = Kohlbrenner TPV mutation score 1
# [4] = Kohlbrenner TPV mutation score 1, 4492 samples
# [5] = Kohlbrenner TPV mutation score 2
# [6] = Kohlbrenner TPV mutation score 2, 4492 samples
# [7] = Kohlbrenner TPV mutation score 3
# [8] = Kohlbrenner TPV mutation score 3, 4492 samples
# [9] = Kohlbrenner TPV mutation score 4
# [10] = Kohlbrenner TPV mutation score 4, 4492 samples
# [11] = Kohlbrenner TPV mutation score 5
# [12] = Kohlbrenner TPV mutation score 5, 4492 samples
# [13] = Kohlbrenner TPV mutation score 6
# [14] = Kohlbrenner TPV mutation score 6, 4492 samples
# [15] = Kohlbrenner TPV mutation score 7
# [16] = Kohlbrenner TPV mutation score 7, 4492 samples
# [17] = Kohlbrenner TPV mutation score 8-9
# [18] = Kohlbrenner TPV mutation score 8, 4492 samples
# [19] = Kohlbrenner TPV mutation score 9, 4492 samples
# [20] = adjusted mutation score 3, training data with gag (n = 1916)
# [21] = adjusted mutation score 3, validation data with gag (n = 1916)
# [22] = adjusted mutation score 3.5, training data with gag (n = 1916)
# [23] = adjusted mutation score 3.5, validation data with gag (n = 1916)
# [24] = adjusted mutation score 4, training data with gag (n = 1916)
# [25] = adjusted mutation score 4, validation data with gag (n = 1916)
# [26] = adjusted mutation score 4.5, training data with gag (n = 1916)
# [27] = adjusted mutation score 4.5, validation data with gag (n = 1916)
# [28] = adjusted mutation score 5, training data with gag (n = 1916)
# [29] = adjusted mutation score 5, validation data with gag (n = 1916)
# [30] = adjusted mutation score 5.5, training data with gag (n = 1916)
# [31] = adjusted mutation score 5.5, validation data with gag (n = 1916)
# [32] = adjusted mutation score 6, training data with gag (n = 1916)
# [33] = adjusted mutation score 6, validation data with gag (n = 1916)
# [34] = adjusted mutation score 6.5, training data with gag (n = 1916)
# [35] = adjusted mutation score 6.5, validation data with gag (n = 1916)
# [36] = adjusted mutation score <3, training data with gag (n = 1916)
# [37] = adjusted mutation score <3, validation data with gag (n = 1916)
# [38] = adjusted mutation score >=7, training data with gag (n = 1916)
# [39] = adjusted mutation score >=7, validation data with gag (n = 1916)
# [40] = base mutation score 0, validation data (n = 2246)
# [41] = base mutation score 1, validation data (n = 2246)
# [42] = base mutation score 2, validation data (n = 2246)
# [43] = base mutation score 3, validation data (n = 2246)
# [44] = base mutation score 4, validation data (n = 2246)
# [45] = base mutation score 5, validation data (n = 2246)
# [46] = base mutation score 6, validation data (n = 2246)
# [47] = base mutation score 7, validation data (n = 2246)
# [48] = base mutation score 8, validation data (n = 2246)
# [49] = base mutation score 9, validation data (n = 2246)
# [50] = samples with 3 TPV mutations (Kohlbrenner score), 4492 samples
smiles,measurement,setting,value
"CCC[C@@]1(CCc2ccccc2)CC(O)=C([C@H](CC)c2cccc(NS(=O)(=O)c3ccc(C(F)(F)F)cn3)c2)C(=O)O1 [TPV, tipranavir]",MEAN tipranavir FC,[1],0.8
same,MEDIAN tipranavir FC,[1],0.7
same,Mean FC,[2],0.8
same,Median FC,[2],0.7
same,MEAN tipranavir FC,[3],1.0
same,MEDIAN tipranavir FC,[3],0.8
same,Mean FC,[4],1.1
same,Median FC,[4],0.9
same,MEAN tipranavir FC,[5],1.5
same,MEDIAN tipranavir FC,[5],1.1
same,Mean FC,[6],1.6
same,Median FC,[6],1.1
same,MEAN tipranavir FC,[7],3.1
same,MEDIAN tipranavir FC,[7],1.6
same,Mean FC,[8],3.1
same,Median FC,[8],1.7
same,MEAN tipranavir FC,[9],6.1
same,MEDIAN tipranavir FC,[9],3.0
same,Mean FC,[10],5.8
same,Median FC,[10],2.9
same,MEAN tipranavir FC,[11],11
same,MEDIAN tipranavir FC,[11],5.7
same,Mean FC,[12],10
same,Median FC,[12],5.5
same,MEAN tipranavir FC,[13],16
same,MEDIAN tipranavir FC,[13],8.8
same,Mean FC,[14],17
same,Median FC,[14],10.7
same,MEAN tipranavir FC,[15],32
same,MEDIAN tipranavir FC,[15],12
same,Mean FC,[16],24
same,Median FC,[16],16
same,MEAN tipranavir FC,[17],44
same,MEDIAN tipranavir FC,[17],24
same,Mean FC,[18],30
same,Median FC,[18],31
same,Mean FC,[19],42
same,Median FC,[19],53
same,mean TPV FC,[20],2.3
same,median TPV FC,[20],1.5
same,mean TPV FC,[21],1.8
same,median TPV FC,[21],1.4
same,mean TPV FC,[22],3.2
same,median TPV FC,[22],1.5
same,mean TPV FC,[23],2.3
same,median TPV FC,[23],1.5
same,mean TPV FC,[24],2.5
same,median TPV FC,[24],2.0
same,mean TPV FC,[25],2.6
same,median TPV FC,[25],2.0
same,mean TPV FC,[26],3.1
same,median TPV FC,[26],2.2
same,mean TPV FC,[27],3.5
same,median TPV FC,[27],2.4
same,mean TPV FC,[28],4.0
same,median TPV FC,[28],2.8
same,mean TPV FC,[29],4.4
same,median TPV FC,[29],2.8
same,mean TPV FC,[30],5.1
same,median TPV FC,[30],2.4
same,mean TPV FC,[31],5.2
same,median TPV FC,[31],3.2
same,mean TPV FC,[32],7.2
same,median TPV FC,[32],4.9
same,mean TPV FC,[33],8.6
same,median TPV FC,[33],4.5
same,mean TPV FC,[34],10.0
same,median TPV FC,[34],6.3
same,mean TPV FC,[35],12.6
same,median TPV FC,[35],7.4
same,mean TPV FC,[36],1.1
same,median TPV FC,[36],0.9
same,mean TPV FC,[37],1.1
same,median TPV FC,[37],0.9
same,mean TPV FC,[38],19.7
same,median TPV FC,[38],13.4
same,mean TPV FC,[39],20.1
same,median TPV FC,[39],12.5
same,mean TPV FC,[40],0.8
same,median TPV FC,[40],0.7
same,mean TPV FC,[41],1.1
same,median TPV FC,[41],0.9
same,mean TPV FC,[42],1.7
same,median TPV FC,[42],1.2
same,mean TPV FC,[43],3.4
same,median TPV FC,[43],1.8
same,mean TPV FC,[44],6.4
same,median TPV FC,[44],3.2
same,mean TPV FC,[45],10.7
same,median TPV FC,[45],5.7
same,mean TPV FC,[46],18
same,median TPV FC,[46],11.7
same,mean TPV FC,[47],24
same,median TPV FC,[47],19
same,mean TPV FC,[48],31
same,median TPV FC,[48],33
same,mean TPV FC,[49],41
same,median TPV FC,[49],41
same,samples with TPV FC greater than 2-fold,[50],44%
same,samples with TPV FC greater than 4-fold,[50],19%

# Source: patent US20100070184A1, “METHOD FOR D[…] HIV TO PROTEASE INHIBITOR TREATMENT” (MONOGRAM BIOSCIENCES, INC., priority 2006, published 2010)
